Here are results for 23 compounds from patent publication US8399681B2, “Substituted aminothiazolone indazoles as estrogen related receptor-alpha modulators” (Janssen Pharmaceutica NV, priority 2009, dated 2013).

In the assay the target is T1, ERR1 (also known as ERR-α or ERR-1) (Homo sapiens, UniProt P11474).
T1 sequence (P11474 193-421 limits assumed): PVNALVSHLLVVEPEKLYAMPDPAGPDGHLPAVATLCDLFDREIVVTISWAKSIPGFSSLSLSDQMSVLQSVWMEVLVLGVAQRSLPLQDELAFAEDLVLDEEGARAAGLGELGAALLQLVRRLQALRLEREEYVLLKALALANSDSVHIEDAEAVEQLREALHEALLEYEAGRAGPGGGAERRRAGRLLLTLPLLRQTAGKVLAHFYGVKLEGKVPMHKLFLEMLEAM
Put plainly: TR-FRET assay (disruption of co-activator peptide binding). The settings on record: 6His-tagged ERR1 LBD, GST-hSRC2 co-activator polypeptide; average of 3 independent experiments. Format: biochemical. In short, it runs like this: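 Compound-induced loss of co-activator recruitment, read by time-resolved FRET (excitation 340 nm; 615 and 665 nm emission) after 4-18 h at 25 °C. Reagents: 6 nM ERR1LBD, 6 nM GST-SRC-2, 30 nM Eu cryptate, 7.5 nM XL665, pH 8 Tris buffer. Values: hyperbolic fits averaged over 3 independent runs.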
For orientation: Time-resolved FRET reads energy transfer from a long-lived donor to a nearby acceptor.

Broadly, the EC50 is the concentration that produces a half-maximal response. For the compound `O=C1N=C(N2CCNC[C@@H]2CO)S/C1=C\c1ccc2c(cnn2Cc2ccc(C(F)(F)F)cc2C(F)(F)F)c1` [Example 104, 5-[1-(2,4-Bis-trifluoromethyl-benzyl)-1H-indazol-5-ylmethylene]-2-(2-hydroxymethyl-piperazin-1-yl)-thiazol-4-one], the midpoint of the response, the EC50, lay at 0.0182 µM.
As to `O=C1N=C(N2CCNC[C@@H]2CO)S/C1=C\c1ccc2c(cnn2Cc2ccc(Cl)cc2C(F)(F)F)c1` [Example 105, 5-[1-(4-Chloro-2-trifluoromethyl-benzyl)-1H-indazol-5-ylmethylene]-2-(2-hydroxymethyl-piperazin-1-yl)-thiazol-4-one], a half-maximal response (EC50) required 0.0409 µM.
The compound `NC(=O)C1CCN(C2=NC(=O)/C(=C/c3ccc4c(cnn4Cc4ccc(C(F)(F)F)cc4C(F)(F)F)c3)S2)CC1` [Example 106, 1-{5-[1-(2,4-Bis-trifluoromethyl-benzyl)-1H-indazol-5-ylmethylene]-4-oxo-4,5-dihydro-thiazol-2-yl}-piperidine-4-carboxylic acid amide] displayed an EC50 of 0.021 µM.
Consider `CC(=O)NC1CCN(C2=NC(=O)/C(=C/c3ccc4c(cnn4Cc4ccc(C(F)(F)F)cc4C(F)(F)F)c3)S2)CC1` [Example 108, N-(1-{5-[1-(2,4-Bis-trifluoromethyl-benzyl)-1H-indazol-5-ylmethylene]-4-oxo-4,5-dihydro-thiazol-2-yl}-piperidin-4-yl)-acetamide], for which the EC50 was 0.0302 µM.
`O=C1N=C(N2CCC(c3nnn[nH]3)CC2)S/C1=C\c1ccc2c(cnn2Cc2ccc(C(F)(F)F)cc2C(F)(F)F)c1` [Example 109, 5-[1-(2,4-Bis-trifluoromethyl-benzyl)-1H-indazol-5-ylmethylene]-2-[4-(1H-tetrazol-5-yl)piperidin-1-yl]-thiazol-4-one] yielded an EC50 of 0.036 µM.
In the case of `O=C1N=C(N2CCC(c3nnn[nH]3)CC2)S/C1=C\c1ccc2c(cnn2Cc2ccc(Cl)cc2C(F)(F)F)c1` [Example 110, 5-[1-(4-Chloro-2-trifluoromethyl-benzyl)-1H-indazol-5-ylmethylene]-2-[4-(1H-tetrazol-5-yl)-piperidin-1-yl]-thiazol-4-one] it was 0.0186 µM; in that of `CS(=O)(=O)NC1CCN(C2=NC(=O)/C(=C/c3ccc4c(cnn4Cc4ccc(Cl)cc4C(F)(F)F)c3)S2)CC1` [Example 111, N-(1-{5-[1-(4-Chloro-2-trifluoromethyl-benzyl)-1H-indazol-5-ylmethylene]-4-oxo-4,5-dihydro-thiazol-2-yl}-piperidin-4-yl)-methanesulfonamide], 0.0069 µM.
In the case of `COC1CCN(C2=NC(=O)/C(=C/c3ccc4c(cnn4Cc4ccc(Cl)cc4C(F)(F)F)c3)S2)CC1` [Example 112, 5-[1-(4-Chloro-2-trifluoromethyl-benzyl)-1H-indazol-5-ylmethylene]-2-(4-methoxy-piperidin-1-yl)-thiazol-4-one], the EC50 came out at 0.029 µM.
As to `COC1CN(C2=NC(=O)/C(=C/c3ccc4c(cnn4Cc4ccc(Cl)cc4C(F)(F)F)c3)S2)C1` [Example 113, 5-[1-(4-Chloro-2-trifluoromethyl-benzyl)-1H-indazol-5-ylmethylene]-2-(3-methoxy-azetidin-1-yl)-thiazol-4-one], a half-maximal response (EC50) required 0.014 µM.
Take `O=C1CCN(C2=NC(=O)/C(=C/c3ccc4c(cnn4Cc4ccc(Cl)cc4C(F)(F)F)c3)S2)CCN1` [Example 114, 1-{5-[1-(4-Chloro-2-trifluoromethyl-benzyl)-1H-indazol-5-ylmethylene]-4-oxo-4,5-dihydro-thiazol-2-yl}-[1,4]diazepan-5-one]: the EC50 came out at 0.013 µM.
Under `O=C(O)CN1CCN(C2=NC(=O)/C(=C/c3ccc4c(cnn4Cc4ccc(Cl)cc4C(F)(F)F)c3)S2)CC1` [Example 117] stands 0.0083 µM.
For `O=C1CCN(C2=NC(=O)/C(=C/c3ccc4c(cnn4Cc4ccc(C(F)(F)F)cc4C(F)(F)F)c3)S2)CCN1` [Example 118, 1-{5-[1-(2,4-Bis-trifluoromethyl-benzyl)-1H-indazol-5-ylmethylene]-4-oxo-4,5-dihydro-thiazol-2-yl}-[1,4]diazepan-5-one], the EC50 is 0.0073 µM.
`O=C(O)CN1CCN(C2=NC(=O)/C(=C/c3ccc4c(cnn4Cc4ccc(C(F)(F)F)cc4C(F)(F)F)c3)S2)CC1` [Example 119] registered an EC50 of 0.014 µM.
`CS(=O)(=O)NC1CCN(C2=NC(=O)/C(=C/c3ccc4c(cnn4Cc4ccc(C(F)(F)F)cc4C(F)(F)F)c3)S2)CC1` [Example 120, N-(1-{5-[1-(2,4-Bis-trifluoromethyl-benzyl)-1H-indazol-5-ylmethylene]-4-oxo-4,5-dihydro-thiazol-2-yl}-piperidin-4-yl)-methanesulfonamide] registered an EC50 of 0.027 µM.
As for `O=C1N=C(N2CCN(C3CC3)CC2)S/C1=C\c1ccc2c(cnn2Cc2ccc(Cl)cc2C(F)(F)F)c1` [Example 121, 5-[1-(4-Chloro-2-trifluoromethyl-benzyl)-1H-indazol-5-ylmethylene]-2-(4-cyclopropyl-piperazin-1-yl)-thiazol-4-one], the response was half-maximal at 0.0253 µM (EC50).
`O=C1N=C(N2CCN(C3CC3)CC2)S/C1=C\c1ccc2c(cnn2Cc2ccc(C(F)(F)F)cc2C(F)(F)F)c1` [Example 122, 5-[1-(2,4-Bis-trifluoromethyl-benzyl)-1H-indazol-5-ylmethylene]-2-(4-cyclopropyl-piperazin-1-yl)-thiazol-4-one] gave an EC50 of 0.0418 µM.
Regarding `CC[C@H]1CN(C2=NC(=O)/C(=C/c3ccc4c(cnn4Cc4ccc(C(F)(F)F)cc4C(F)(F)F)c3)S2)CCN1` [Example 124, 5-[1-(2,4-Bis-trifluoromethyl-benzyl)-1H-indazol-5-ylmethylene]-2-(3-ethyl-piperazin-1-yl)-thiazol-4-one], the EC50 came out at 0.009 µM.
For the compound `O=C1N=C(N2CCCO2)S/C1=C\c1ccc2c(cnn2Cc2ccc(Cl)cc2C(F)(F)F)c1` [Example 126, 5-[1-(4-Chloro-2-trifluoromethyl-benzyl)-1H-indazol-5-ylmethylene]-2-isoxazolidin-2-yl-thiazol-4-one], the EC50 came out at 0.024 µM.
On to `CCOC(=O)CN1CCN(C2=NC(=O)/C(=C/c3ccc4c(cnn4Cc4ccc(Cl)cc4C(F)(F)F)c3)S2)CC1` [Example 127], for which it took 0.029 µM to reach a half-maximal effect (EC50).
`CCOC(=O)N1CCCN(C2=NC(=O)/C(=C/c3ccc4c(cnn4Cc4ccc(Cl)cc4C(F)(F)F)c3)S2)CC1` [Example 128, 4-{5-[1-(4-Chloro-2-trifluoromethyl-benzyl)-1H-indazol-5-ylmethylene]-4-oxo-4,5-dihydro-thiazol-2-yl}-[1,4]diazepane-1-carboxylic acid ethyl ester] displayed an EC50 of 0.032 µM.
Consider `CCOC(=O)N1CCCN(C2=NC(=O)/C(=C/c3ccc4c(cnn4Cc4ccc(C(F)(F)F)cc4C(F)(F)F)c3)S2)CC1` [Example 129, 4-{5-[1-(2,4-Bis-trifluoromethyl-benzyl)-1H-indazol-5-ylmethylene]-4-oxo-4,5-dihydro-thiazol-2-yl}-[1,4]diazepane-1-carboxylic acid ethyl ester], for which it took 0.028 µM to reach a half-maximal effect (EC50).
In the case of `COC(=O)COC1CCN(C2=NC(=O)/C(=C/c3ccc4c(cnn4Cc4ccc(Cl)cc4C(F)(F)F)c3)S2)CC1` [Example 130] it was 0.032 µM; in that of `O=C(O)COC1CCN(C2=NC(=O)/C(=C/c3ccc4c(cnn4Cc4ccc(Cl)cc4C(F)(F)F)c3)S2)CC1` [Example 131], 0.0078 µM.
